Data from ChEMBL document CHEMBL1201862, “PubChem BioAssay data set” (2004).
Activity calls are given as the source filed them.

Experiments:
[1] = target: Disintegrin and metalloproteinase domain-containing protein 17 (Homo sapiens, UniProt P78536); test: exosite inhibitors of ADAM17, dose response, biochemical (AID 743260)
[2] = ADAM10 protease inhibitors, dose response, selectivity assay for ADAM17 exosite inhibitor project, biochemical, FRET peptide substrate, recombinant human ADAM10 (AID 743259);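 note: ADAM10 enzyme cleaving a FRET peptide substrate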
HeLa = test: HeLa cell cytotoxicity, dose response, cytotoxicity control, ATP luminescence, cherry-pick samples (AID 687004); format: functional, cell-based; conditions: Homo sapiens
[3] = HEp-2 cell cytotoxicity, dose response, cytotoxicity control for RSV inhibitor project, HTS (AID 2410); format: functional; conditions: human respiratory syncytial virus
[4] = target: T1, High affinity choline transporter 1 (Homo sapiens, UniProt Q9GZV3); test: CHT inhibitors, dose response, cell-based, 5-point CRC, membrane potential dye (AID 504840); format: functional
T1 sequence (Q9GZV3 whole entry): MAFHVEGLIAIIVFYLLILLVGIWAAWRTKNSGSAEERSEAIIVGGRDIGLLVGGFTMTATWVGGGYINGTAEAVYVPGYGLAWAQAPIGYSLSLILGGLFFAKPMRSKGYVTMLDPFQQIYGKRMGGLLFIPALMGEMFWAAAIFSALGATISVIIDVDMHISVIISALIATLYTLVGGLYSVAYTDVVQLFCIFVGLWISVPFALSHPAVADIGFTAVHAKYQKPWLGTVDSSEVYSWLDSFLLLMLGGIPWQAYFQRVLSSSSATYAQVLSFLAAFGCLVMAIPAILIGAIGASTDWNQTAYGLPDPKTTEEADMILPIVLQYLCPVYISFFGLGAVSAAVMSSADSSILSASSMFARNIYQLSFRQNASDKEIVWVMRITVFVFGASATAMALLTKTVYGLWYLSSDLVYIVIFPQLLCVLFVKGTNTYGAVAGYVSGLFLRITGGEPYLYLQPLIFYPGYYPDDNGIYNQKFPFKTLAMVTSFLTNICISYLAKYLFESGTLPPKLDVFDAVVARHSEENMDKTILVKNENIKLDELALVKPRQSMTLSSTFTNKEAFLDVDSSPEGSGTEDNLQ

Vero = test: cells; format: functional; conditions: Chlorocebus sabaeus

Disintegrin and metalloproteinase domain-containing protein 17, sequence (P78536 whole entry, the tested form may be a part): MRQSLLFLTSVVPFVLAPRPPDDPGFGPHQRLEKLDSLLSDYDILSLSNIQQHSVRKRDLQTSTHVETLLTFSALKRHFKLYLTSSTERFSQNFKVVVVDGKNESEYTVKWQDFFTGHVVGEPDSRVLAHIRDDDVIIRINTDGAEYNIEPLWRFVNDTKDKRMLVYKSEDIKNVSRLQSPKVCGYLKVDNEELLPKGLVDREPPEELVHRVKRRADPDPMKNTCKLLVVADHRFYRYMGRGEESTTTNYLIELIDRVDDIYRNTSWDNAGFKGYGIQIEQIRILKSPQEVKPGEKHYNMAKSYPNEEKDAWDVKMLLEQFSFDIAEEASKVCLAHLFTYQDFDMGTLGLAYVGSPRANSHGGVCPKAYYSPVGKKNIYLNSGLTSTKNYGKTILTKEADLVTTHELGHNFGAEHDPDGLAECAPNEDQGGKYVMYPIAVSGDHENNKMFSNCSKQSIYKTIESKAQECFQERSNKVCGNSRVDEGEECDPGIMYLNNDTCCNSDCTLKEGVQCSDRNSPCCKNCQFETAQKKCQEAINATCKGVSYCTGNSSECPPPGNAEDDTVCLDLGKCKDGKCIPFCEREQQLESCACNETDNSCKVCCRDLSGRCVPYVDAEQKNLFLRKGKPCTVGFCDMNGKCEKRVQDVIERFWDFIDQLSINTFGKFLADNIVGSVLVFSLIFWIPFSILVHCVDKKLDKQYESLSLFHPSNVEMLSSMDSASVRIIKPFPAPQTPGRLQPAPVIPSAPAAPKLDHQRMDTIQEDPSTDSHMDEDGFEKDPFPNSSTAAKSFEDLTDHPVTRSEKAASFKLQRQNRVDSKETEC

SMILES	IC50 [1]	IC50 [2]	AC50 (HeLa)	CC50 [3]	IC50 [4]	CC50 (Vero)
O=C1NC(=O)C(c2ccc(Cl)cc2)N1 (stereo not given)	> 69.4 µM (inactive)	> 69.4 µM (inactive)				
C[C@@H]1CN([C@@H](C)CO)C(=O)Cc2cc(NS(=O)(=O)c3ccccc3)ccc2O[C@@H]1CN(C)Cc1ccc(Cl)c(Cl)c1			43.7 µM (active)			
CN1C(=O)/C(=N\c2ccc(O)cc2)c2c3ccccc3c(O)c3cccc1c23	> 69.5 µM (inactive)	28.9 µM (inactive)		16.8 µM (active)	12.3 µM (active)	> 25 µM (active)
COc1cccc(C(NC(C)=O)c2nc(-c3ccc4ccccc4c3)cs2)c1 (stereo not given)	> 69.5 µM (inactive)	18.5 µM (inactive)				
